From the NIST ThermoML archive (doi:10.1016/j.fluid.2018.09.024)
± gives the expanded uncertainty stated by the source.

Assay: activity coefficient (dimensionless); of the first substance listed, at infinite dilution; xn = mol fraction of the nth substance listed
Conditions: 101.33 kPa, Liquid, Chromatography, x1 = 0

| Compound | activity coefficient (318.15 K) | activity coefficient (328.15 K) | activity coefficient (338.15 K) | activity coefficient (348.15 K) | activity coefficient (358.15 K) | activity coefficient (368.15 K) | activity coefficient (378.15 K) |
| --- | --- | --- | --- | --- | --- | --- | --- |
| C#CCCC [1-pentyne] + CCCCCCCCCCCC[N+](C)(C)CCOc1ccccc1.O=S(=O)([N-]S(=O)(=O)C(F)(F)F)C(F)(F)F | 1.07 ± 0.07 | 1.13 ± 0.07 | 1.19 ± 0.08 | 1.25 ± 0.08 | 1.32 ± 0.09 | 1.39 ± 0.09 |  |
| CC(C)CC(C)(C)C [2,2,4-trimethylpentane] + CCCCCCCCCCCC[N+](C)(C)CCOc1ccccc1.N#C[N-]C#N |  | 7.07 ± 0.48 | 7.15 ± 0.49 | 7.23 ± 0.49 | 7.32 ± 0.5 | 7.39 ± 0.5 | 7.47 ± 0.51 |
| CC(C)CC(C)(C)C [2,2,4-trimethylpentane] + CCCCCCCCCCCC[N+](C)(C)CCOc1ccccc1.O=S(=O)([N-]S(=O)(=O)C(F)(F)F)C(F)(F)F | 3.66 ± 0.25 | 3.72 ± 0.25 | 3.77 ± 0.26 | 3.82 ± 0.26 | 3.86 ± 0.26 | 3.9 ± 0.27 |  |
| CCC(C)(C)C [2,2-dimethylbutane] + CCCCCCCCCCCC[N+](C)(C)CCOc1ccccc1.N#C[N-]C#N |  | 5.84 ± 0.4 | 5.95 ± 0.41 | 6.05 ± 0.41 | 6.14 ± 0.42 | 6.25 ± 0.43 | 6.35 ± 0.43 |
| CCC(C)(C)C [2,2-dimethylbutane] + CCCCCCCCCCCC[N+](C)(C)CCOc1ccccc1.O=S(=O)([N-]S(=O)(=O)C(F)(F)F)C(F)(F)F | 2.82 ± 0.19 | 2.91 ± 0.2 | 2.99 ± 0.2 | 3.07 ± 0.21 | 3.15 ± 0.21 | 3.24 ± 0.22 |  |
| CCOC(C)(C)C [2-ethoxy-2-methylpropane] + CCCCCCCCCCCC[N+](C)(C)CCOc1ccccc1.N#C[N-]C#N |  | 3.66 ± 0.25 | 3.74 ± 0.25 | 3.82 ± 0.26 | 3.9 ± 0.27 | 3.97 ± 0.27 | 4.03 ± 0.27 |
| CCOC(C)(C)C [2-ethoxy-2-methylpropane] + CCCCCCCCCCCC[N+](C)(C)CCOc1ccccc1.O=S(=O)([N-]S(=O)(=O)C(F)(F)F)C(F)(F)F | 1.8 ± 0.12 | 1.87 ± 0.13 | 1.94 ± 0.13 | 2.01 ± 0.14 | 2.09 ± 0.14 | 2.16 ± 0.15 |  |
| CCC(C)(C)OC [2-methoxy-2-methylbutane] + CCCCCCCCCCCC[N+](C)(C)CCOc1ccccc1.N#C[N-]C#N |  | 2.49 ± 0.17 | 2.56 ± 0.17 | 2.63 ± 0.18 | 2.69 ± 0.18 | 2.75 ± 0.19 | 2.81 ± 0.19 |
| CCC(C)(C)OC [2-methoxy-2-methylbutane] + CCCCCCCCCCCC[N+](C)(C)CCOc1ccccc1.O=S(=O)([N-]S(=O)(=O)C(F)(F)F)C(F)(F)F | 1.22 ± 0.08 | 1.29 ± 0.08 | 1.36 ± 0.09 | 1.43 ± 0.09 | 1.5 ± 0.1 | 1.56 ± 0.1 |  |
| COC(C)(C)C [2-methoxy-2-methylpropane] + CCCCCCCCCCCC[N+](C)(C)CCOc1ccccc1.N#C[N-]C#N |  | 2.28 ± 0.16 | 2.33 ± 0.16 | 2.38 ± 0.16 | 2.43 ± 0.17 | 2.48 ± 0.17 | 2.53 ± 0.17 |
| COC(C)(C)C [2-methoxy-2-methylpropane] + CCCCCCCCCCCC[N+](C)(C)CCOc1ccccc1.O=S(=O)([N-]S(=O)(=O)C(F)(F)F)C(F)(F)F | 1.03 ± 0.06 | 1.09 ± 0.07 | 1.15 ± 0.07 | 1.21 ± 0.08 | 1.27 ± 0.08 | 1.33 ± 0.09 |  |
| CC(C)CO [2-methyl-1-propanol] + CCCCCCCCCCCC[N+](C)(C)CCOc1ccccc1.N#C[N-]C#N |  | 0.451 ± 0.036 | 0.46 ± 0.036 | 0.469 ± 0.037 | 0.477 ± 0.037 | 0.486 ± 0.037 | 0.494 ± 0.038 |
